Measurements: PMC7866854, “Pseudo-Dipeptide Bearing α,α-Difluoromethyl Ketone Moiety as Electrophilic Warhead with Activity against Coronaviruses” (International Journal of Molecular Sciences, 2021)
Like-named read-outs stand apart in the source and are kept apart here.

Columns and labels:
SARS-CoV-2 M^pro = conditions: read-out: Exp. EC50; listed under SARS-CoV-2 Mpro; cited from earlier work
[1] = molecular target: Anopheles gambiae acetylcholinesterase (AgAChE); conditions: read-out: IC50, AgAChE inhibitor; cited from earlier work
[2] = molecular target: bovine pancreatic α-chymotrypsin; set-up: method as in PMID 2353815, PMID 3527255; conditions: read-out: Ki, α-chymotrypsin inhibitor; cited from earlier work
HIV-1 protease = molecular target: HIV-1 protease; set-up: method as in doi:10.1039/c39910000110; conditions: read-out: Ki, HIV protease inhibitor; cited from earlier work
SARS-CoV M^pro = conditions: read-out: IC50, SARS-CoV Mpro inhibitor; cited from earlier work
hCoV-229E = test: CPE-based antiviral assay (CellTiter-Glo cell viability as surrogate of CPE) in MRC5 cells infected with hCoV-229E; conditions: Human coronavirus 229E; for EC50: read-out: EC50, inhibition of hCoV-229E replication
in vitro = conditions: human

In the case of `Cc1cc(C(=O)N[C@@H](C)C(=O)N[C@H](C(=O)N[C@@H](CC(C)C)C(=O)N[C@H](/C=C\C(=O)OCc2ccccc2)C[C@@H]2CCNC2=O)C(C)C)no1` [N3], the EC50 (SARS-CoV-2 M^pro) is given as 16.8 ± 1.7 µM.
In the case of `CC(C)(C)c1cccc(C(=O)C(F)F)c1` [compound 1], the IC50 [1] is given as 0.00605 µM.
For `CC(C)n1cc(C(=O)C(F)F)cn1` [compound 2], the IC50 [1] is given as 0.802 µM.
For `CC(=O)NC(CC(C)C)C(=O)NC(Cc1ccccc1)C(=O)C(F)F` (stereo not drawn) [compound 4, Ac-Leu-Phe-CHF2], the Ki [2] is given as 25 µM.
In the case of `CC(C)C(NC(=O)OCc1ccccc1)C(=O)NC(Cc1ccccc1)C(=O)C(F)(F)C(Cc1ccccc1)NC(=O)C(NC(=O)OCc1ccccc1)C(C)C` (stereo not shown) [compound 6], the Ki (HIV-1 protease) is listed as 0.0001 µM.
For `CC(C)CC(NC(=O)OCc1ccccc1)C(=O)NC(Cc1ccccc1)C(O)(O)C(F)(F)F` (stereo not drawn) [compound 7, Z-Leu-Phe-CF3], the IC50 (SARS-CoV M^pro) is given as 10 µM.
For `CC(C)CC(NC(=O)OCc1ccccc1)C(=O)NC(CCc1ccccc1)C(O)(O)C(F)F` (stereo not shown) [compound 8, Z-Leu-Homophe-CHF2], the EC50 (hCoV-229E; MRC5, 72 h) was 12.9 ± 1.22 µM and the EC90 (hCoV-229E; MRC5 cells, 100 PFU/well, 72 h p.i., CellTiter-Glo, read-out: EC90, inhibition of hCoV-229E replication) was 38.6 ± 0.67 µM.
For `CCC(CC)COC(=O)[C@H](C)N[P@](=O)(OC[C@H]1O[C@@](C#N)(c2ccc3c(N)ncnn23)[C@H](O)[C@@H]1O)Oc1ccccc1` [remdesivir], the EC50 (hCoV-229E; MRC5 cells, 100 PFU/well, 72 h p.i., CellTiter-Glo) was 0.034 ± 0.0025 µM and the CC50 (in vitro) was > 10 µM.
